We go through one substance from US20260028390A1, “ALPHA1-ANTITRYPSIN FOR USE IN THE TREATMENT OF DISEASES OR DISORDERS OF THE NERVOUS SYSTEM SUCH AS CHRONIC INFLAMMATORY DEMYELINATING POLYNEUROPATHY” (Ageronix SA, priority 2022, published 2026).

Several values for one entry are separate records, joined by “and”; a condition that tells them apart may be missing. Identical values can stand only once.

Data set [1] in a line: Plasma AAT levels, CMT1A mouse study (50 mg/kg twice daily). The settings on record: CMT1A + AAT group. It counts as in vivo. As for the experimental part:
Animals were split in 3 groups (wild-type control (subcutaneous 0.9% NaCl), CMT1A-vehicle (subcutaneous 0.9% NaCl), CMT1A-human alpha-1 antitrypsin (subcutaneous, twice daily, 50 mg/kg per injection)) of 3 mice each (3 weeks old males of 18±2.5 g at the beginning of study) and all went through the following protocol after 7 days of acclimation on site.
Plasma levels of AAT were evaluated every 5 days from the first day of treatment to the last treatment day.
AAT was not detected in plasma of the wild type control and CMT1A mice treated with vehicle at the analyzed time points (day 14, day 19, day 24 and day 29). The AAT was detected in plasma of CMT1A+AAT group at a mean of 6.07 μg/mL, 6.99 μg/mL, 8.14 μg/mL and 5.22 μg/mL at day 14, day 19, day 24 and day 29 respectively.

In another data set the test system is CIDP mice. Kind of data set: Rotarod test, CIDP mouse model. Type of data set: in vivo. The settings on record: for Rotarod latency (Mean ± SEM): CIDP mice; for Rotarod latency, group Mean: group mean of 4 animals; for Rotarod latency, Mean/animal: per animal; for Rotarod latency, Mean/animal / Rotarod latency, set 1 / Rotarod latency, set 2 / Rotarod latency, set 3: listed as hAAT; for Rotarod latency, set 1 / Rotarod latency, set 2 / Rotarod latency, set 3: raw data per animal. As for the experimental part:
C57BL/6 mice were received at 8 weeks of age and housed under controlled conditions for the duration of the study. Three groups of 4 animals each were assigned to the following subcutaneous treatments twice daily at 7:00 AM and 7:00 PM for 2 weeks, from 20 to 35 days after the start of disease induction: • Wild type (WT) mice receiving the vehicle, 0.9% NaCl (positive control) • CIDP mice receiving the vehicle, 0.9% NaCl (negative control) • CIDP mice receiving human AAT (AAT), 50 mg/kg per injection
Disease induction consisted in subcutaneous injection of mouse sciatic nerve homogenate in phosphate buffer saline (PBS)+Freund's adjuvant mixture at 10 mL/kg. For each treatment, 3 different body sites injections were performed. Control mice also received three subcutaneous injections of PBS+Freund's adjuvant at the same 3 different body sites.
On the first (Day 20) and last (Day 35) day of treatment, the neuromuscular and performance of animals was tested with a rotarod test, grip test and a sensory test using the Von Frey filament test, as well as sciatic nerve electrophysiology test. After the last treatment at Day 35, these tests were repeated, animals were sacrificed and the left sciatic nerve was sampled for histological evaluation of the number and size of […].
For orientation: Falling from the rotarod earlier than controls is read as motor impairment.

Data set [2] relates to CMT1A mice B6.Cg-Tg(PMP22)C3Fbas/J. In words: Grip strength, CMT mice treated with AAT 180 mg/kg/day sc. The settings on record: 8 weeks old, CMT + hAAT 180 mg/kg/day SC, individual animal. It counts as in vivo, mouse.

On to alpha1-antitrypsin (AAT) protein, for which the “AAT detected in plasma (mean)” value in data set [1] (day 14) came to 6.07 µg/mL. Further, the “AAT detected in plasma (mean)” value in data set [1] (day 19) came out at 6.99 µg/mL. In data set [1] (day 24), the “AAT detected in plasma (mean)” value came out at 8.14 µg/mL. For the same substance, in data set [1] (day 29), the “AAT detected in plasma (mean)” value was 5.22 µg/mL. Moreover, the “rotarod latency compared to the vehicle treated group” value in the data set on CIDP mice (CIDP + AAT 50 mg/kg sc twice daily, Day 35) is listed as “increase”. For the same substance, in the data set on CIDP mice (Day 20 (baseline, first treatment day)), the “Rotarod latency (Mean ± SEM)” value is 25.96 ± 6.16 s. The “Rotarod latency (Mean ± SEM)” value in the data set on CIDP mice (Day 35, AAT 50 mg/kg sc twice daily) was 34.96 ± 9.47 s. For the same substance, in the data set with CIDP mice (Baseline (Day 20)), the “Rotarod latency, group Mean” value is 25.96 s; the “Rotarod latency, Mean/animal” value is 17.68 s and 29.19 s and 31.82 s and 25.13 s; the “Rotarod latency, set 1” value is 19.1 s and 28.0 s and 28.7 s and 24.1 s; the “Rotarod latency, set 2” value is 17.7 s and 26.7 s and 33.0 s and 24.0 s. For the same substance, the “Rotarod latency, set 3” value in the data set with CIDP mice (Baseline (Day 20)) was 16.2 s and 32.9 s and 33.8 s and 27.3 s. For the same substance, in the data set with CIDP mice (Day 35), the “Rotarod latency, group Mean” value came to 34.96 s; the “Rotarod latency, Mean/animal” value is 38.90 s and 36.28 s and 43.23 s and 21.41 s; the “Rotarod latency, set 1” value was 32.02 s and 44.79 s and 52.44 s and 37.74 s; the “Rotarod latency, set 2” value was 36.34 s and 31.48 s and 34.61 s and 19.21 s. Further, in the data set with CIDP mice (Day 35), the “Rotarod latency, set 3” value was 48.35 s and 32.56 s and 42.63 s and 7.29 s. For the same substance, in data set [2], the “Grip strength, Mean/animal” value is 4.83 NEWTONS and 2.73 NEWTONS and 2.97 NEWTONS and 4.09 NEWTONS and 5.05 NEWTONS and 7.59 NEWTONS and 5.53 NEWTONS and 5.68 NEWTONS; the “Grip strength, set 1” value is 3.97 NEWTONS and 2.15 NEWTONS and 3.47 NEWTONS and 4.13 NEWTONS and 4.85 NEWTONS and 8.17 NEWTONS and 6.20 NEWTONS and 4.87 NEWTONS; the “Grip strength, set 2” value was 5.37 NEWTONS and 4.34 NEWTONS and 2.22 NEWTONS and 4.58 NEWTONS and 3.84 NEWTONS and 5.69 NEWTONS and 4.40 NEWTONS and 5.39 NEWTONS; the “Grip strength, set 3” value is 5.14 NEWTONS and 1.69 NEWTONS and 3.21 NEWTONS and 3.55 NEWTONS and 6.47 NEWTONS and 8.92 NEWTONS and 5.99 NEWTONS and 6.77 NEWTONS.
